In patent US20160279236A1, “USE OF RAPAMYCIN AS VACCINE ADJUVANT AND PREPARATION METHOD THEREFOR” (INSTITUT PASTEUR OF SHANGHAI, CHINESE ACADEMY OF SCIENCES, priority 2013, published 2016):
“Also recorded” adds a separate entry of the source.

How the values were obtained:
[1] = tested on: HBsAg-specific antibody titers; assay: HBsAg homologous prime-boost immunization with adjuvants; format: in vivo, C57BL6 mice
Description: HBsAg (5 μg/mouse) was respectively mixed with the following adjuvants or adjuvant combinations: rapamycin (100 μg/mouse)+MPL (10 μg/mouse), MPL (10 μg/mouse), rapamycin (100 μg/mouse) or Alum (200 μg/mouse)+MPL (10 μg/mouse) to immunize (primary immunization) C57BL6 mice. After 4 weeks, each group of mice was boosted according to the same program as the primary immunization. The mice were killed after two weeks, and serum was prepared for determining the content of HBsAg-specific IgG1, IgG2b and IgG2c.

BMDCs = assay: Cytokine production (ELISA) in LPS-stimulated BMDCs pre-treated with rapamycin; format: cell-based, C57BL/6 mice
Description: Bone marrow stem cells from 6-8 weeks aged C57BL/6 mice were taken, and erythrocytes were removed by using ammonium chloride lysate (0.15 M NH4Cl, 1 mM […], 0.1 mM Na2EDTA, pH7.3), and then suspension-cultured at a cell density of 10^6 cells/mL in a dendritic cell (bone-marrow derived dendritic cell, BMDC) differentiation medium (formulation of which was: RPMI 1640 complete medium (comprising 5% (v/v) FBS and 1% (v/v) pen strep), with 20 ng/ml GM-CSF, 10 ng/ml IL-4, 2 mM L-glutamine and 200 μM β-mercaptoethanol being added). After differentiation for 7 days, the cells were purified with CD11c magnetic beads to obtain BMDCs. The purified BMDCs were resuspended in a fresh dendritic cell culture medium (10^6 cells/ml), and inoculated into 24-well plate with 500 μL per well 100 nM of rapamycin or DMSO (control) were used to pre-treat the cells for 1 hour, and then the cells were stimulated with 100 ng/ml LPS for 24 hours. The supernatant was taken and the amount of IL-12 was measured by ELISA.

[2] = tested on: immune response against HCV outer membrane protein E2; assay: HCV E2 protein immunization with adjuvants: T cell and antibody responses; format: in vivo, C57BL/6 mice; settings: E2 protein 20 μg/mouse; Alum 200 μg, MPL 10 μg, rapamycin 100 μg per mouse; IFNγ ELISA of E2-stimulated spleen cells, FIG. 7A
Description: C57BL/6 mice were immunized using purified E2 protein (20 μg/mouse, bought from eEnzyme company, Cat No. HCV-E21b) as antigen in mixture with Alum (200 μg/mouse), MPL (10 μg/mouse), rapamycin (100 μg/mouse), MPL (10 µg/mouse)+rapamycin (100 μg/mouse) respectively, and after 4 weeks, were boosted by the same antigen+adjuvant program. 8 weeks after the secondary immunization, mice were immunized for one time with E2 protein (without MPL or rapamycin) (5 μg/mouse), and the mice were killed after 2 weeks. Spleen cells were taken to determine immune response of T cells (FIG. 7A), and serum was taken to determine antibody titers (FIG. 7B). The spleen cells (5×10^5 cells) were stimulated with 10 μg/ml of E2 protein. After 48 hours, the content of IFNγ in the supernatant was determined by enzyme linked immunosorbent assay (ELISA). […] Meanwhile, antibody response induced by the combination of rapamycin and MPL was also the best, which was better than MPL or alum alone (FIG. 7B).

[3] = tested on: OVA-specific T cell responses and antibody responses; assay: Ovalbumin immunization of mice with adjuvants: OVA-specific T cell and antibody responses; format: in vivo
Description: 6-8 weeks aged mice were primarily immunized by the inventors using intraperitoneal injection method, wherein Ovalbumin (10 μg/mouse) was used as antigen and PBS (negative control), MPL (10 μg/mouse, positive control), rapamycin (100 μg/mouse), rapamycin (100 μg/mouse)+MPL (10 μg/mouse) as adjuvant respectively, and were immunized again with ovalbumin (10 μg/mouse, without adjuvant) at 3 weeks. […] After 48 hours, enzyme linked immunosorbent assay (ELISA) was used to determine the content of IFNγ in the supernatant.

[4] = tested on: HBsAg-specific antibody and T cell responses; assay: HBsAg immunization with Compositions 1-3 (different amounts of rapamycin + MPL); format: in vivo, mice
Description: Composition 1, comprising (dosage for one mouse): rapamycin 5 μg, MPL 10 μg, and PBS 0.2 ml;
Composition 2, comprising (dosage for one mouse): rapamycin 20 μg, MPL 10 μg, and PBS 0.2 ml;
Composition 3, comprising (dosage for one mouse): rapamycin 100 μg, MPL 10 μg, and PBS 0.2 mL.
Mice were immunized with Compositions 1-3 in mixture with HBsAg (5 μg, dosage for one mouse) respectively, and were boosted 3 weeks after the primary immunization. The mice were killed after one week, and the serum was prepared to determine the content of HBsAg-specific IgG1, IgG2b and IgG2c (FIG. 5). Meanwhile, spleen cells (5×10^5 cells) were respectively stimulated by using 10 μg/ml of CD8^+ T cell epitope peptide ([…] or VWLSVIWM) and CD4^+ T cell epitope peptide ([…]), and after 48 hours, enzyme linked immunosorbent assays (ELISA) was used to determine the content of IFNγ in the supernatant (FIG. 5b). […] Moreover, at all of the three concentrations, rapamycin has increased T cell response induced by MPL, especially the activation of CD4^+ and CD8^+ T cells which secrete IFN-γ (FIG. 5b).

[5] = after immunized for two times, HBsAg 5 μg/mouse, rapamycin 100 μg/mouse, serum two weeks after boost
[6] = BMDCs, 100 nM rapamycin, 100 ng/ml LPS
[7] = blood 1 week after secondary immunization, single adjuvants vs negative control, combination vs MPL alone
[8] = 5 μg of rapamycin + MPL 10 μg, HBsAg 5 μg per mouse

CO[C@H]1C[C@@H]2CC[C@@H](C)[C@@](O)(O2)C(=O)C(=O)N2CCCC[C@H]2C(=O)O[C@H]([C@H](C)C[C@@H]2CC[C@@H](O)[C@H](OC)C2)CC(=O)[C@H](C)/C=C(\C)[C@@H](O)[C@@H](OC)C(=O)[C@H](C)C[C@H](C)/C=C/C=C/C=C/1C [rapamycin]
HBsAg-induced antibody titers, IgG1 [1, 5]: significantly enhance
HBsAg-induced antibody titers, IgG2b [1, 5]: significantly enhance
HBsAg-induced antibody titers, IgG2c [1, 5]: significantly enhance
adjuvant activity of MPL ([1]; homologous prime-boost immunization program, FIG. 6): remarkably enhance
amount of IL-12, increase compared with the control group (BMDCs; 100 nM rapamycin pre-treatment 1 hour, 100 ng/ml LPS 24 hours, supernatant ELISA, DMSO control): more than 3 times
LPS-induced IL-12 production (BMDCs; [6]): enhanced; also recorded: promote
induced-secretion of IL-23 (BMDCs; [6]): remarkably increase; also recorded: enhanced; also recorded: promote
production of IL-10 (BMDCs; [6]): inhibit the production; also recorded: inhibited
LPS-induced IL-12 production (BMDCs; BMDCs, 100 nM rapamycin, 100 ng/ml LPS, listed as Rapamycin): significantly enhance
immune response of IFN-γ secreting T cells against HCV E2 [2]: inferior effect
OVA-specific IgG1 antibody titers [3, 7]: relatively moderate
OVA-specific IgG2b antibody titers [3, 7]: relatively moderate; also recorded: enhanced
OVA-specific IgG2c antibody titers [3, 7]: relatively moderate; also recorded: enhanced
OVA-specific CD8+ T cell responses ([3]; mice i.p., ovalbumin 10 μg, MPL 10 μg, rapamycin 100 μg per mouse, IFNγ ELISA of splenic cells stimulated with OVA-1, 48 hours): relatively moderate; also recorded: enhanced
OVA-specific CD4+ (Th1) T cell responses ([3]; mice i.p., ovalbumin 10 μg, MPL 10 μg, rapamycin 100 μg per mouse, IFNγ ELISA of splenic cells stimulated with OVA-II, 48 hours): relatively moderate; also recorded: enhanced
antibody titers induced by MPL [4, 8]: significantly increase
increase of secretion of IgG2b induced by MPL [4, 8]: ~5 times
increase of secretion of IgG2c induced by MPL [4, 8]: ~5 times
T cell response induced by MPL (IFN-γ secreting CD4+ and CD8+ T cells) ([4]; all three amounts of rapamycin (5, 20, 100 μg) + MPL 10 μg, IFNγ ELISA of peptide-stimulated spleen cells): increased
HBsAg-specific antibody responses enhanced by MPL ([4]; different amounts of rapamycin, FIG. 5a): increased
antibodies induced by MPL ([4]; rapamycin raised to 20 or 100 μg + MPL 10 μg, HBsAg 5 μg per mouse): further enhanced
MPL-induced antibody titers and T cell response, dose dependence ([4]; rapamycin within the range of 5-100 μg): dose-dependent manner
